Reference: ChEMBL document CHEMBL1201862, “PubChem BioAssay data set” (2004)
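Results reflect a 48-hour exposure of cells in 96-well plates to compound at five concentrations. GI50: concentration for 50% inhibition of growth.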 Calls of active or inactive are those of the source. No stated cut-off is given here; in the data, active = GI50 up to about 1.1 µM and inactive = higher.

Key:
Experiment in all cases: NCI-60 cell line screen, 48 h
[1] = system: OVCAR-5
[2] = system: SF-539
[3] = system: NCI-H460
[4] = system: Malme-3M
[5] = system: HCT-15
[6] = system: OVCAR-4
[7] = system: SK-OV-3
[8] = system: HOP-92
[9] = system: HOP-62
[10] = system: RPMI-8226
[11] = system: SN12C
[12] = system: A549
[13] = system: OVCAR-3
[14] = system: SK-MEL-28
[15] = system: SF-268
[16] = system: MDA-MB-231
[17] = system: NCI/ADR-RES
[18] = system: MDA-MB-435

SMILES	GI50 [1]	GI50 [2]	GI50 [3]	GI50 [4]	GI50 [5] [µM]	GI50 [6]	GI50 [7]	GI50 [8]	GI50 [9]	GI50 [10]	GI50 [11]	GI50 [12]	GI50 [13]	GI50 [14]	GI50 [15]	GI50 [16]	GI50 [17]	GI50 [18]
C=C(Br)C(C)(Cl)CCC(Br)C(C)(C)Br (centres undefined)	37.2 µM (inactive)	> 100 µM (inactive)	47.5 µM (inactive)	69 µM (inactive)	67	> 100 µM (inactive)	> 100 µM (inactive)	32.7 µM (inactive)	> 100 µM (inactive)	25.9 µM (inactive)	> 100 µM (inactive)	40.9 µM (inactive)						
CC(=O)O/N=C/c1ncccc1CO	> 100 µM (inactive)	> 100 µM (inactive)	> 100 µM (inactive)	> 100 µM (inactive)	> 100	> 100 µM (inactive)	> 100 µM (inactive)	> 100 µM (inactive)	> 100 µM (inactive)		> 100 µM (inactive)	> 100 µM (inactive)	> 100 µM (inactive)	> 100 µM (inactive)	> 100 µM (inactive)			
CCOC(=N)/C(=C1\OC(=N)C(c2ccc(Cl)cc2)=C1O)c1ccc(Cl)cc1	19.4 µM (inactive)	16.5 µM (inactive)	21.6 µM (inactive)	14.3 µM (inactive)		11.8 µM (inactive)	36.5 µM (inactive)	18.5 µM (inactive)	22.5 µM (inactive)	14.8 µM (inactive)	14.8 µM (inactive)	23.4 µM (inactive)	18 µM (inactive)	16 µM (inactive)	14.5 µM (inactive)			
CC12O[C@H](c3ccccc3)[C@H](c3ccccc3)N1C(=O)C1(C(=O)OCc3ccccc3)CC12 (some centres undefined)	> 100 µM (inactive)		> 100 µM (inactive)	> 100 µM (inactive)	86.5	79.1 µM (inactive)	> 100 µM (inactive)	23.5 µM (inactive)	> 100 µM (inactive)		> 100 µM (inactive)	22.3 µM (inactive)	> 100 µM (inactive)		> 100 µM (inactive)			
N/N=C1\c2ccccc2C2/C(=N\N)c3ccccc3C12 (centres undefined)	> 100 µM (inactive)	> 100 µM (inactive)	> 100 µM (inactive)	> 100 µM (inactive)	> 100	> 100 µM (inactive)	> 100 µM (inactive)	> 100 µM (inactive)		> 100 µM (inactive)	> 100 µM (inactive)	> 100 µM (inactive)	> 100 µM (inactive)	> 100 µM (inactive)	> 100 µM (inactive)			
O/N=C1/CCC/C1=C\c1ccccc1	67.5 µM (inactive)	> 100 µM (inactive)	> 100 µM (inactive)	> 100 µM (inactive)	> 100	> 100 µM (inactive)	> 100 µM (inactive)	> 100 µM (inactive)	> 100 µM (inactive)	> 100 µM (inactive)	> 100 µM (inactive)	> 100 µM (inactive)	> 100 µM (inactive)	> 100 µM (inactive)	> 100 µM (inactive)			
Cc1ccc(S(=O)(=O)OCC23CCC(C2)C2CC23)cc1 (centres undefined)	> 100 µM (inactive)		> 100 µM (inactive)	> 100 µM (inactive)	> 100	> 100 µM (inactive)	> 100 µM (inactive)	26 µM (inactive)	> 100 µM (inactive)	90.4 µM (inactive)	> 100 µM (inactive)	> 100 µM (inactive)	> 100 µM (inactive)	> 100 µM (inactive)	> 100 µM (inactive)			
Cc1ccc(NC(=O)CCc2nc(N)nc(N)c2-c2ccccc2)cc1C	> 100 µM (inactive)	> 100 µM (inactive)	> 100 µM (inactive)	> 100 µM (inactive)	> 100	> 100 µM (inactive)	> 100 µM (inactive)	> 100 µM (inactive)	> 100 µM (inactive)	> 100 µM (inactive)	> 100 µM (inactive)	> 100 µM (inactive)	> 100 µM (inactive)	> 100 µM (inactive)	> 100 µM (inactive)			
O=C1[C@H]2ON(c3ccccc3)C(c3ccccc3Cl)[C@H]2C(=O)N1c1ccc(Cc2ccc(N3C(=O)[C@@H]4ON(c5ccccc5)C(c5ccccc5Cl)[C@@H]4C3=O)cc2)cc1 (some centres undefined)	> 100 µM (inactive)	> 100 µM (inactive)	> 100 µM (inactive)	> 100 µM (inactive)	> 100	> 100 µM (inactive)	> 100 µM (inactive)	71 µM (inactive)	> 100 µM (inactive)	> 100 µM (inactive)	> 100 µM (inactive)	> 100 µM (inactive)	> 100 µM (inactive)	> 100 µM (inactive)	> 100 µM (inactive)			
COc1cc2nc(NCCCCCNC(=O)c3ccco3)nc(N)c2cc1OC	38.3 µM (inactive)	19.6 µM (inactive)	32 µM (inactive)	17.4 µM (inactive)	> 100	29.3 µM (inactive)	32.4 µM (inactive)	12.2 µM (inactive)	24.2 µM (inactive)	38 µM (inactive)	39.8 µM (inactive)	74.8 µM (inactive)	24.7 µM (inactive)	19.2 µM (inactive)	36.2 µM (inactive)			
O=C(C[n+]1ccccc1)N/N=C(/CCC(=O)N(Cc1ccccc1)Cc1ccccc1)CC(=O)c1ccccc1	> 100 µM (inactive)	> 100 µM (inactive)	> 100 µM (inactive)	> 100 µM (inactive)	> 100	> 100 µM (inactive)		> 100 µM (inactive)	> 100 µM (inactive)	> 100 µM (inactive)	> 100 µM (inactive)	> 100 µM (inactive)	> 100 µM (inactive)	> 100 µM (inactive)	> 100 µM (inactive)			
O=[N+]([O-])c1ccccc1/C=N/C12CC3CC(CC(C3)C1)C2	> 100 µM (inactive)	80.2 µM (inactive)	> 100 µM (inactive)	66.1 µM (inactive)	42.1	87.7 µM (inactive)	> 100 µM (inactive)	72.8 µM (inactive)	99.5 µM (inactive)	34 µM (inactive)	> 100 µM (inactive)	> 100 µM (inactive)	32.3 µM (inactive)	> 100 µM (inactive)	> 100 µM (inactive)			
CN(C)C(=O)c1ccc([N+](=O)[O-])cc1	> 100 µM (inactive)	> 100 µM (inactive)	> 100 µM (inactive)	> 100 µM (inactive)	> 100	> 100 µM (inactive)	> 100 µM (inactive)	> 100 µM (inactive)	> 100 µM (inactive)		> 100 µM (inactive)	> 100 µM (inactive)	> 100 µM (inactive)	> 100 µM (inactive)	> 100 µM (inactive)			
CC1(C)OC2CC3COC(=O)C3CC2O1 (centres undefined)	> 100 µM (inactive)	> 100 µM (inactive)	> 100 µM (inactive)	> 100 µM (inactive)	> 100	> 100 µM (inactive)	> 100 µM (inactive)	> 100 µM (inactive)	> 100 µM (inactive)	> 100 µM (inactive)	> 100 µM (inactive)	> 100 µM (inactive)	> 100 µM (inactive)	> 100 µM (inactive)	> 100 µM (inactive)			
CC(=O)OC(COc1ccc2c(c1)[n+]([O-])nc(N)[n+]2[O-])CN1CCCCC1 (centres undefined)	20.8 µM (inactive)	15.2 µM (inactive)	3.97 µM (inactive)	9.79 µM (inactive)	7.89	30.7 µM (inactive)		17.4 µM (inactive)		5.58 µM (inactive)	7.62 µM (inactive)	15.3 µM (inactive)	13.6 µM (inactive)	24.5 µM (inactive)	> 10 µM (inactive)	5.61 µM (inactive)	68.5 µM (inactive)	36 µM (inactive)
CCOc1ccccc1/N=N/c1ccc2oc(=O)c(C(=O)Nc3cccc(C)c3)cc2c1	> 100 µM (inactive)	25.8 µM (inactive)		29.9 µM (inactive)	25.4	28.6 µM (inactive)	49.7 µM (inactive)		49.1 µM (inactive)	24.5 µM (inactive)	36.3 µM (inactive)	42.3 µM (inactive)	20 µM (inactive)	26 µM (inactive)	29.4 µM (inactive)			
COC(=O)CC[C@]12C[C@]13CC[C@]1(C)C4C(C)C[C@]5(CC(C)C(=O)O5)OC4CC1(C)C3CCC2C(C)(C)O (some centres undefined)	> 100 µM (inactive)	50.6 µM (inactive)	68.7 µM (inactive)	> 100 µM (inactive)	50.9	95.9 µM (inactive)	> 100 µM (inactive)	23.7 µM (inactive)	45.6 µM (inactive)	25.4 µM (inactive)	61.5 µM (inactive)	> 100 µM (inactive)	76 µM (inactive)	84.9 µM (inactive)	81.1 µM (inactive)			
Nc1ncnc2c1ncn2[C@]1(CO)C=C(CO)C(O)C1O (some centres undefined)	80.4 µM (inactive)		> 100 µM (inactive)	> 100 µM (inactive)	> 100	> 100 µM (inactive)	> 100 µM (inactive)	> 100 µM (inactive)	52.5 µM (inactive)	> 100 µM (inactive)	> 100 µM (inactive)	> 100 µM (inactive)		> 100 µM (inactive)	> 100 µM (inactive)			
Cc1cc(O)cc2oc(=O)c3c(O)cc(O)cc3c12 [ALTERNARIOL]	69.2 µM (inactive)	17 µM (inactive)	13.1 µM (inactive)	40.3 µM (inactive)	18.2	65.3 µM (inactive)	18.5 µM (inactive)	30.5 µM (inactive)	20.7 µM (inactive)		50.5 µM (inactive)	16.1 µM (inactive)	23 µM (inactive)	> 100 µM (inactive)	27.4 µM (inactive)			
